Converted amounts (≈) assume the structure as drawn.
Assays:
[1] = tested on: release of TNF from THP-1 cells; test: Cellular Assay (Protocol B): inhibition of release of TNF from LPS-stimulated THP-1 cells; type: cell-based; conditions: Homo sapiens, LPS 5 microg/mL, 4 h
Experimental: For example, the following cell-based assay was used to assess such activity:
THP-1 cells, cultured in RPMI 1640 supplemented with 10% FCS, were distributed into 24-well plates, 1 mL of a suspension of 1×10^6 cells/mL in each well. Compounds to be tested, dissolved in DMSO and diluted with the culture medium (1% final DMSO concentration) were added. Plates were incubated for 30 min at 37° C. in 5% CO2, and lipopolisaccharide (LPS 0111:B4, 5 microg/mL) was added as a stimulant. After a further 4 h incubation, cells were harvested, centrifuged (2,000 rpm, 7 min), and the surnatant was collected and freezed (-20° C.) until analysis. Analysis was run by classical ELISA methodology (monoclonal anti-TNF-a antibody, rabbit capture policlonal antibody, and peroxidated anti-rabbit antibody).

[2] = molecular target: T1, MMP-2 (human gelatinase A) (Homo sapiens, UniProt P08253); test: Biochemical Assay (Protocol A): inhibition of human gelatinase A, fluorimetric peptide substrate; conditions: MMP-2, pH 7.4, 37° C.
T1 sequence (P08253 110-660): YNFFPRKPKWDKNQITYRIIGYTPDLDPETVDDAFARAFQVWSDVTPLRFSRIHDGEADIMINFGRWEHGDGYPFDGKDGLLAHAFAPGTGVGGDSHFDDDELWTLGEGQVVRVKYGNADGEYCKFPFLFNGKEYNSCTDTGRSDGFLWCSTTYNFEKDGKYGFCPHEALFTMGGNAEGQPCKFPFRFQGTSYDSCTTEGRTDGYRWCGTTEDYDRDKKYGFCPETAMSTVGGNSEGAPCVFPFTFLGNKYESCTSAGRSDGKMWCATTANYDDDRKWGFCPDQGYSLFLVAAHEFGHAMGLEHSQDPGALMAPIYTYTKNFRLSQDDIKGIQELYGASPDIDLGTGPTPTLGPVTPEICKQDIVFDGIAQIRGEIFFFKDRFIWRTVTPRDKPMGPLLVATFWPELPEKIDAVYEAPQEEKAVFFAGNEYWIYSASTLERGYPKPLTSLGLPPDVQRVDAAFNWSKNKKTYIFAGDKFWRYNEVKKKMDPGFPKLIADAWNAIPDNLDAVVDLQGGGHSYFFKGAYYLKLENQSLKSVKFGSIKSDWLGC
From the text: (§1) As mentioned above, although low molecular weight MMP inhibitors, including hydroxamates of general formula (A), are already known, there is a strong need for better and diversified molecules for their use in medicine, that is in particular in the control or prevention of degenerative joint diseases such as rheumatoid arthritis and osteoarthritis, or in the management of multiple sclerosis, or in the treatment of invasive tumors. […] For example, the following protocol was used to assess the biochemical activity of compounds of formula (I) against MMP-1, MMP-2, and MMP-3 (respectively, human interstitial collagenase, gelatinase A, and stromelysin-1).
(§2) Human gelatinase-A (MMP-2) was obtained as pro-enzyme (72 kDa) and was activated with 1 mM 4-aminophenylmercuric acetate for 30 min at 37° C. immediately prior to use. Human stromelysin-1 (MMP-3) was obtained as a recombinant pro-enzyme isolated either from E. coli or from baculovirus infected Sf9 insect cells and activated either by heat (1 h, 55° C.) or by 5 mg/l trypsin (30 min, 37° C.) before addition of soybean trypsin inhibitor, finally removed by centrifugation.
(§3) All enzyme assays to determine values of the enzyme-inhibitor dissociation constants were performed using the peptide substrate (7-methoxycoumarin-4-yl)Acetyl-Pro-Leu-Gly-Leu-(3-[2,4-dinitrophenyl]-L-2,3-diaminopropionyl)-Ala-Arg-NH2 (Mca-Pro-Leu-Gly-Leu-Dpa-Ala-Arg--NH2) (C. G. Knight et al., FEBS Lett. 296:263-266, 1992). The enzymes cleave at the Gly-Leu bond removing the internally quenching Dpa group. The release of the highly fluorescent peptide Mca-Pro-Leu was followed fluorimetrically setting the excitation wavelength at 326 nm (bandwidth 5 nm) and the emission at 392 nm (bandwidth 20 nm).
(§4) Continuous fluorescence assay was carried out using a Perkin Elmer LS-50 Fluorescence Spectrophotometer fitted with a thermostatted four position stirring cell changer. Inhibitors were dissolved in the assay buffer ([…] Tris/HCl pH 7.4 containing 0.15 M NaCl, 10 mM CaCl2, 0.01 mM ZnCl2 and 0.05% Brij 35) thermostatted at 37° C. The reaction was started by the addition of substrate ([…]), followed by the addition of the enzyme (e.g. 1.0 nM collagenase, 0.04 nM gelatinase, or 3.0 nM stromelysin) and the increase in fluorescence was monitored over 30 min. The run was repeated at different concentrations of inhibitors in the range 0.1-10000 nM and data at inhibitor concentration in the region if their enzyme-inhibitor dissociation constants were used for calculation.
(§5) Substrate consumption was within 5% of the initial concentration and data outside this range were discarded. The Michaelis constants (Km) for the enzyme-substrate complexes is […] or greater (C. G. Knight et al., reference above), so that the factor (1+S/Km) can be approximated to unity without appreciable error.

[3] = molecular target: T2, MMP-3 (human stromelysin-1) (Homo sapiens, UniProt P08254); test: Biochemical Assay (Protocol A): inhibition of human stromelysin-1, fluorimetric peptide substrate; conditions: MMP-3, pH 7.4, 37° C.
T2 construct: host or cells: E. coli or baculovirus-infected Sf9 insect cells
From the text: as §1, §2, §3, §4, §5

[4] = molecular target: T3, MMP-1 (human interstitial collagenase) (Homo sapiens, UniProt P03956); test: Biochemical Assay (Protocol A): inhibition of human collagenase, fluorimetric peptide substrate; conditions: MMP-1, pH 7.4, 37° C.
T3 construct: truncated recombinant enzyme encompassing residues 101-269
T3 sequence (P03956 101-269): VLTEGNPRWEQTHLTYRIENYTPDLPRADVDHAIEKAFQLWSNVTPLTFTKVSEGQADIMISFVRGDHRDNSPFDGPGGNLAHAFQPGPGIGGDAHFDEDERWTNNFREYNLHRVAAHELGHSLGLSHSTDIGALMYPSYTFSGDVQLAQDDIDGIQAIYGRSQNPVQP
From the text: as §1, §2, §3, §4, §5

[5] = Aqueous solubility; type: physicochemical; conditions: water, pH 7.0, 25° C.
Experimental: Further, several compounds of formula (I), in particular when R2 is hydroxy, and when R1 is hydroxymethyl, have enhanced water solubility as compared to the vast majority of MMP inhibitors of the prior art. An aqueous solubility threshold, which may vary widely but can be roughly set in the range of 1-10 mg/mL, makes systemic administration easy, and more than often is essential to good oral bioavailability.

T2 sequence (P08254 100-477): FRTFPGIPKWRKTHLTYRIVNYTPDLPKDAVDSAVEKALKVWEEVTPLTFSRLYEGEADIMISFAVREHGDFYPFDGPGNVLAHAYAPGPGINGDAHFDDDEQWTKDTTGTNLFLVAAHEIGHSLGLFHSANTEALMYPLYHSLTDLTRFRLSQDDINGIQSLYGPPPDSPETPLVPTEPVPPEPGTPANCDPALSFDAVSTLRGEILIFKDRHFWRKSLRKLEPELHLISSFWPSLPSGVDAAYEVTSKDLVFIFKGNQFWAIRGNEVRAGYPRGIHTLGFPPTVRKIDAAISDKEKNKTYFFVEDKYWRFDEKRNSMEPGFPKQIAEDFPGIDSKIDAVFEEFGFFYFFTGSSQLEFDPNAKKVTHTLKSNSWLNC

With CNC(=O)[C@@H](NC(=O)[C@H](CC(C)C)[C@](O)(COC1CCCCO1)C(=O)NO)C(C)(C)C (stereo partly drawn) [Example 2, [(2R,3S)-3-Hydroxy-4-hydroxyamino-2-isobutyl-3-(tetrahydro-pyran-2-yloxymethyl)succinyl]-L-tert-leucine-N-methylamide] as the molecule, how does the IC50 [1] read?
The IC50 was 5200 nM.

Which Ki [2] does the source give for CNC(=O)[C@H](Cc1ccccc1)NC(=O)[C@H](CC(C)C)[C@](O)(COC1CCCCO1)C(=O)NO (stereo partly drawn) [Example 5, [(2R,3S)-3-Hydroxy-4-hydroxyamino-2-isobutyl-3-(tetrahydro-pyran-2-yloxymethyl)succinyl]-L-phenylalanine-N-methylamide] here?
Its Ki is 0.62 nM.

What about the IC50 [1] of the same molecule?
The IC50 was 1490 nM.

And the Ki [3]?
Its Ki is 15 nM.

And the Ki [4]?
The Ki was 2.7 nM.

What does the source list for CNC(=O)[C@H](Cc1ccccc1)NC(=O)[C@H](CC(C)C)[C@@](O)(COC1CCCCO1)C(=O)NO (stereo partly drawn) [Example 6, [(2R,3R)-3-Hydroxy-4-hydroxyamino-2-isobutyl-3-(tetrahydro-pyran-2-yloxymethyl)succinyl]-L-phenylalanine-N-methylamide]?
Ki [2]: 23 nM; IC50 [1]: 65400 nM; Ki [3]: 430 nM; Ki [4]: 67 nM

With CNC(=O)[C@H](Cc1ccccc1)NC(=O)[C@H](CC(C)C)[C@](O)(CO)C(=O)NO [Example 7, [(2R,3S)-3-Hydroxy-4-hydroxyamino-3-hydroxymethyl-2-isobutyl-succinyl]-L-phenylalanine-N-methylamide] as the molecule, how does the Ki [2] read?
The Ki was 3.1 nM.

What about the inhibition at 100 µM ([1]; at 100 microM) of the same molecule?
Its inhibition at 100 µM is 90%.

And the solubility [5]?
Its solubility is 6000 µg/mL (≈ 15.2 mM).

What about the Ki [3] of the same molecule?
Its Ki is 32 nM.

And the Ki [4]?
The Ki was 1.5 nM.

Which Ki [2] does the source give for CNC(=O)[C@@H](NC(=O)[C@H](CC(C)C)[C@@](COC1CCCCO1)(OC1CCCCO1)C(=O)NO)C(C)(C)C (stereo partly drawn) [Example 8, [(2R,3S)-4-Hydroxyamino-2-isobutyl-3-(2-tetrahydropyranyl)oxy-3-(2-tetrahydropyranyl)oxymethylsuccinyl]-L-tert-leucine-N-methylamide] here?
The Ki was 40 nM.

What about the solubility [5] of the same molecule?
Its solubility is 10000 µg/mL (≈ 18.9 mM).

And the Ki [3]?
The Ki was 1100 nM.

And the Ki [4]?
Its Ki is 45 nM.

For CNC(=O)[C@@H](NC(=O)[C@H](CC(C)C)[C@](O)(COC(C)=O)C(=O)NO)C(C)(C)C [Example 9, [(2R,3S)-3-Acetoxymethyl-3-hydroxy-4-hydroxyamino-2-isobutyl-succinyl]-L-tert-leucine-N-methylamide], which Ki [2] is on record?
Its Ki is 1.7 nM.

What about the solubility [5] of the same molecule?
Its solubility is over 9000 µg/mL.

And the Ki [3]?
The Ki was 110 nM.

And the Ki [4]?
The Ki was 2.2 nM.

For CC(=O)OC[C@](O)(C(=O)NO)[C@@H](CC(C)C)C(=O)N[C@H](C(=O)Nc1ccncc1)C(C)(C)C [Example 11, [(2R,3S)-3-Acetoxymethyl-3-hydroxy-4-hydroxyamino-2-isobutyl-succinyl]-L-tert-leucine-N-(4-pyridyl)amide], which Ki [2] is on record?
Its Ki is 4.7 nM.

What about the solubility [5] of the same molecule?
The solubility was 3400 µg/mL (≈ 7.29 mM).

What about the Ki [3] of the same molecule?
Its Ki is 4.9 nM.

What about the Ki [4] of the same molecule?
Its Ki is 7.3 nM.

Which Ki [2] does the source give for CC(C)C[C@@H](C(=O)N[C@H](C(=O)Nc1ccncc1)C(C)(C)C)[C@](O)(CO)C(=O)NO [Example 12, [(2R,3S)-3-Hydroxy-4-hydroxyamino-3-hydroxymethyl-2-isobutyl-succinyl]-L-tert-leucine-N-(4-pyridyl)amide] here?
Its Ki is 9.5 nM.

And the solubility [5]?
Its solubility is over 10000 µg/mL.

And the Ki [3]?
The Ki was 10 nM.

And the Ki [4]?
Its Ki is 6.8 nM.

Which Ki [2] does the source give for CNC(=O)[C@@H](NC(=O)[C@H](CC(C)C)[C@](O)(COC(=O)C(C)(C)C)C(=O)NO)C(C)(C)C [Example 13, [(2R,3S)-3-Hydroxy-4-hydroxyamino-2-isobutyl-3-(tri-methylacetoxy)methyl-succinyl]-L-tert-leucine-N-methylamide] here?
The Ki was 6.5 nM.

What about the solubility [5] of the same molecule?
The solubility was 1300 µg/mL (≈ 2.92 mM).

And the Ki [3]?
The Ki was 71 nM.

And the Ki [4]?
The Ki was 3.4 nM.

What does the source list for CNC(=O)[C@H](Cc1ccccc1)NC(=O)[C@H](CC(C)C)C1(C(=O)NO)CC1 [Example 20, [2R-(1-Hydroxyaminocarbonyl)cyclopropyl-4-methylpentanoyl]-L-phenylalanine-N-methylamide]?
Ki [2]: 19 nM; solubility [5]: 5800 µg/mL (≈ 15.4 mM); Ki [3]: 880 nM; Ki [4]: 25 nM

With CC(C)C[C@@H](C(=O)N1CCOCC1)[C@](O)(COC(=O)c1ccccc1)C(=O)NO [Example 22, 1-[(2R,3S)-3-Benzoyoloxymethyl-3-hydroxy-4-hydroxyamino-2-isobutylsuccinyl]morpholine] as the molecule, how does the solubility [5] read?
The solubility was 1900 µg/mL (≈ 4.65 mM).

With CC(=O)OC[C@](O)(C(=O)NO)[C@@H](CC(C)C)C(=O)N1CCCCC1 [Example 23, 1-[(2R,3S)-3-Acetoxymethyl-3-hydroxy-4-hydroxyamino-2-isobutylsuccinyl]piperidine] as the molecule, how does the solubility [5] read?
The solubility was 5000 µg/mL (≈ 14.5 mM).

Which solubility [5] does the source give for CC(C)C[C@@H](C(=O)N1CCCCC1)[C@](O)(CO)C(=O)NO [Example 24, 1-[(2R,3S)-3-Hydroxy-4-hydroxyamino-3-hydroxymethyl-2-isobutyl-succinyl]piperidine] here?
The solubility was over 6000 µg/mL.

Which solubility [5] does the source give for CC(C)C[C@@H](C(=O)N1CCOCC1)[C@](O)(COC(=O)C(C)(C)C)C(=O)NO [Example 25, 1-[(2R,3S)-3-Hydroxy-4-hydroxyamino-2-isobutyl-3-(trimethyl-acetoxy)methylsuccinyl]morpholine] here?
The solubility was over 8000 µg/mL.

From patent publication US6194451A, “Matrix metalloproteinase inhibitors” (Pharmacia & Upjohn S.p.A., priority 1997, dated 2001)
